Measurements reported in article PMC6405842, “Identification of a novel scaffold for a small molecule GPR139 receptor agonist” (Scientific Reports, 2019).
Like-named read-outs stand apart in the source and are kept apart here.

Columns and labels:
GPR139 [1] = molecular target: T1, GPR139 (Homo sapiens, UniProt Q6DWJ6); assay: Fluo-4 calcium mobilization assay, agonist mode, concentration-response curves in CHO-GPR139 cells; assay type: cell-based; conditions: for pEC50 ± S.E.M. / EC50 / Emax ± S.E.M.: CHO-GPR139 cells; for EC50: at least three independent concentration-response curves in duplicate, read-out: EC50; for Emax ± S.E.M.: normalized to buffer (0%) and 8 μM 1a (100%)
T1 construct: host or cells: CHO-k1
T1 sequence (Q6DWJ6 1-353): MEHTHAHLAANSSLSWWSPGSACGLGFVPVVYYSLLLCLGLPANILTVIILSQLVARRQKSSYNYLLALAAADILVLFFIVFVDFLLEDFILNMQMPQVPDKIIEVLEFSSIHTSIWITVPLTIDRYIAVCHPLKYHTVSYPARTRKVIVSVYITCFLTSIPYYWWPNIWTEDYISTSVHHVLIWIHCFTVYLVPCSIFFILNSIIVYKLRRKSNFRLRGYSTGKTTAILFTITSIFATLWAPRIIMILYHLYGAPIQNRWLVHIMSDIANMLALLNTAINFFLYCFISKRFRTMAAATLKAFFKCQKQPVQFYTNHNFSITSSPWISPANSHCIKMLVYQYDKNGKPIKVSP
Procedure: (§1) All compounds were tested on a CHO-k1 cell line stably expressing GPR139 (CHO-GPR139)[11] kindly provided by H. Lundbeck A/S, Denmark. GPR139-specific responses were assessed using a CHO-k1 cell line stably expressing the muscarinic acetylcholine receptor M1 (CHO-M1) (The Missouri S&T cDNA Resource Center, # CEM100TN00). The CHO-GPR139 cells were grown in Dulbecco’s modified Eagle’s medium (DMEM) F12-Kaighn’s (ThermoFisher Scientific # 21127) supplemented with 10% dialyzed fetal bovine serum (United States origin; ThermoFisher Scientific # 26400), 1% GlutaMAX-I (100X) (ThermoFisher Scientific # 35050061), and 100 units/mL penicillin and 100 µg/mL streptomycin (ThermoFisher Scientific # 15140122) and 1 mg/mL geneticin (ThermoFisher Scientific # 11811031). The CHO-M1 cells were grown in Ham’s F12 (ThermoFisher Scientific # 21765) supplemented with 10% fetal bovine serum (South American origin; ThermoFisher Scientific # 10270) + 100 units/mL penicillin and streptomycin and 0.25 mg/mL geneticin.
The Fluo-4 Ca^2+-assay was performed as described previously, with minor modifications. After 1 hour incubation with the Fluo-4 dye, the CHO-GPR139 cells were washed with 100 μL HEPES buffer (Hank’s Balanced Salt Solution (HBBS, ThermoFisher Scientific # 14175053) supplemented with 20 mM HEPES, 1 mM MgCl2, 1 mM CaCl2, pH = 7.4) and the compound library was then added in concentrations between 25–63 μM dissolved in HEPES buffer (supplemented with 2.5 mM probenecid and 1% DMSO) and pre-incubated for 10 min at 37 °C. 33 μL of 3.2 μM 1a were added automatically after baseline measurements. […] This set-up allowed us to identify both antagonists and agonists (Fig. 2).
Each compound, for which a concentration response curve was made, was tested at least three times in duplicate measurements. After the incubation with the Fluo-4 dye and a wash, 100 μL HEPES buffer (supplemented with 2.5 mM probenecid) was added to each well and incubated for 10 minutes at 37 °C before recording. 33 μL of compounds (4× concentrated) were added automatically after baseline measurements.
(§2) The Ca^2+ and ERK responses were normalized as indicated and the concentration response curves were fitted by Prism 6 software (GraphPad) using nonlinear regression in a sigmoidal model with variable slope, as has been previously described.

GPR139 [2] = molecular target: T1, GPR139; assay: Phospho-ERK1/2 HTRF assay in CHO-GPR139 cells; assay type: cell-based; conditions: ERK phosphorylation; for EC50 / pEC50 ± SEM: CHO-GPR139 cells; for Emax / Emax ± SEM: expressed relative to FBS positive control
Procedure: All compounds were tested on a CHO-k1 cell line stably expressing GPR139 (CHO-GPR139)[11] kindly provided by H. Lundbeck A/S, Denmark. GPR139-specific responses were assessed using a CHO-k1 cell line stably expressing the muscarinic acetylcholine receptor M1 (CHO-M1) (The Missouri S&T cDNA Resource Center, # CEM100TN00).
Phospho-ERK measurements were made using the Advanced Phospho-ERK1/2 (Thr202/Tyr204) HTRF kit by Cisbio (Codolet, France). Approximately 24 hours prior to the experiment, CHO-GPR139 cells were plated at 50,000 cells/well onto a 96-well plate and cultured as detailed above. Approximately 6 hours later, the media was aspirated, replaced with 50 μL serum-free media, and the cells were allowed to serum starve overnight. The day of the experiment, serial dilutions of the test compounds and controls were made in serum-free media at 2x final concentration. 50 μL of test compounds were added directly to the appropriate wells for 5 minute stimulation at 37 °C. At this point, the media and compounds were rapidly aspirated, lysis/blocking buffer was added, and cells were lysed on a shaker for 30 minutes at room temperature.
as §2

[3] = molecular target: T2, muscarinic acetylcholine receptor M1 (Homo sapiens, UniProt P11229); assay: Calcium mobilization counter-screen in CHO-M1 cells; assay type: cell-based; conditions: concentration from which the calcium response is nonspecific
T2 construct: host or cells: CHO-k1
T2 sequence (P11229 1-460): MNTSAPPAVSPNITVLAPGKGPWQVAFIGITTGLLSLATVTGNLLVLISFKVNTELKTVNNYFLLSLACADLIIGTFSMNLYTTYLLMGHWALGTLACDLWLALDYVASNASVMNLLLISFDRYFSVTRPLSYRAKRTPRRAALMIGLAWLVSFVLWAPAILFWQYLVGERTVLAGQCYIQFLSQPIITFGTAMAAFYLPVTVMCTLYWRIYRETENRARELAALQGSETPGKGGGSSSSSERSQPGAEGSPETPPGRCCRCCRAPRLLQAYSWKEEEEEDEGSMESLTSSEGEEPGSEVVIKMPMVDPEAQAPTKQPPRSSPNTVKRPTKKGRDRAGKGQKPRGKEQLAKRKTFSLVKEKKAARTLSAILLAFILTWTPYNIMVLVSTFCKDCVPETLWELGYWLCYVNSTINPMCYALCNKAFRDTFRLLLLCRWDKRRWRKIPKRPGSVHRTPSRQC
Procedure: as §1
The primary screening of 4,000 diverse screening compounds on GPR139, led us to identify 108 initial actives in GPR139-expressing cells. […] We excluded compounds that had (1) an effect on another simultaneously tested GPCR (data not shown), (2) reactive groups, or (3) poor predicted solubility. 52 of the active compounds were re-purchased for validation, which were tested at three concentrations (100, 50 and 25 μM) using the same methodology as in the screening campaign. […] None of the 11 hits promoted calcium mobilization in the M1 receptor cells (data not shown). The 11 hits were then screened in pure agonist mode (i.e., without the presence of 1a) to evaluate if they were agonists or antagonists (Fig. 3 and Supplementary Table S1). All 11 hits were agonists.
When screening the compounds as antagonists they were pre-incubated for 10 min as in the HTS. 33 μL of 3.2 μM 1a on the CHO-GPR139 cells or 20 μM carbachol on the CHO-M1 cells were added automatically after baseline measurements.

GPR139 [4] = molecular target: T1, GPR139; conditions: proposed endogenous GPR139 ligands; cited from earlier work
[5] = read-out: pEC50 ± SEM (converted)
[6] = 5 minute stimulation, read-out: EC50

Molecule | EC80 concentration (GPR139 [1]; used for second stimulation in the screen) | EC50 (GPR139 [2]; [5]) | Emax (GPR139 [2]) | pEC50 ± S.E.M. (GPR139 [1]) | EC50 (GPR139 [1]) | Emax ± S.E.M. (GPR139 [1]) | Note: Nonspecific ≥ concentration [3] | pEC50 ± SEM (GPR139 [2]) | EC50 (GPR139 [2]; [6]) | Emax ± SEM (GPR139 [2]) | EC50 (GPR139 [4])
COc1cc(OC)cc(C(=O)NNC(=O)Nc2cccc3ccccc23)c1 [1a, reference compound] | 800 nM | 28.2 nM | 81.5 ± 4.12% |  |  |  |  |  |  |  | 
C[C@H](NC(=O)CNC(=O)c1cccc(Cl)c1)c1ccccc1 [7c, reference compound] |  | 12.9 nM | 89.1 ± 4.38% |  |  |  |  |  |  |  | 
Cc1ccc(C(C)NC(=O)NCC(=O)NCC2CC2)cc1F (centres unmarked) [AC177] |  |  |  | 7.02 ± 0.11 | 90 nM | 103 ± 1% |  | 7.65 ± 0.13 | 22 nM | 79.10 ± 3.19 | 
CC(C)COCCCNC(=O)NC(C)c1ccc(Cl)cc1Cl (centres unmarked) [AC183] |  |  |  | 6.74 ± 0.19 | 180 nM | 110 ± 10% |  | 7.41 ± 0.25 | 39 nM | 64.38 ± 5.28 | 
CCCCC/C=C/C/C=C/CCCCCCCC(=O)NC(C)c1ccccc1 (centres unmarked) [AC223] |  |  |  |  |  |  | Nonspecific ≥ 50 μM |  |  |  | 
COc1cccc(C(=O)CN2C(=O)NC(C)(c3ccc(Cl)cc3)C2=O)c1 (centres unmarked) [AC225] |  |  |  | 6.56 ± 0.05 | 280 nM | 120 ± 5% | Nonspecific ≥ 10 μM |  |  |  | 
N[C@@H](Cc1c[nH]c2ccccc12)C(=O)O [L-tryptophan, reference compound] |  | 759000 nM | 70.6 ± 8.59% |  |  |  |  |  | 770000 nM |  | 
ACTH: adrenocorticotropic hormone, proposed endogenous GPR139 ligand (SYSMEHFRWGKPVGKKRRPVKVYPNGAEDESAEAFPLEF; Corticotropin; UniProt P01189 138-176, looked up) |  |  |  |  |  |  |  |  |  |  | 2100 nM

Further lines, with some results ahead:

EC80 concentration (GPR139 [1]; used for second stimulation in the screen) | EC50 (GPR139 [2]; [5]) | Emax (GPR139 [2]) | pEC50 ± S.E.M. (GPR139 [1]) | EC50 (GPR139 [1]) | Emax ± S.E.M. (GPR139 [1]) | Note: Nonspecific ≥ concentration [3] | pEC50 ± SEM (GPR139 [2]) | EC50 (GPR139 [2]; [6]) | Emax ± SEM (GPR139 [2]) | Molecule | EC50 (GPR139 [4])
 |  |  | 6.13 ± 0.14 | 740 nM | 104 ± 1% | Nonspecific ≥ 10 μM |  |  |  | CC(=O)c1c(C)[nH]c(C(=O)CN2C(=O)NC(C)(c3ccc4c(c3)OCCO4)C2=O)c1C (centres unmarked) [AC123] | 
 |  |  | 6.09 ± 0.15 | 800 nM | 103 ± 5% | Nonspecific ≥ 40 μM |  |  |  | CC1(c2ccc3c(c2)OCO3)NC(=O)N(CC(=O)c2ccc(Cl)s2)C1=O (centres unmarked) [AC134] | 
 |  |  | 6.68 ± 0.02 | 210 nM | 106 ± 4% |  | 7.41 ± 0.30 | 39 nM | 62.32 ± 6.66 | C=CCN(CC=C)C(=O)CN1C(=O)NC(C)(c2ccc3c(c2)OCCO3)C1=O (centres unmarked) [AC194] | 
 |  |  | 6.71 ± 0.14 | 190 nM | 103 ± 1% |  | 7.03 ± 0.14 |  | 78.70 ± 4.05 | CC1(c2ccc3c(c2)OCO3)NC(=O)N(CC(=O)N2CCc3ccccc32)C1=O (centres unmarked) [AC197] | 
 |  |  | 6.42 ± 0.06 | 380 nM | 94 ± 3% | Nonspecific ≥ 100 μM |  |  |  | CCc1cccc2c(C(=O)CN3C(=O)NC(C)(c4ccc5c(c4)OCO5)C3=O)c[nH]c12 (centres unmarked) [AC206] | 
 |  |  | 6.05 ± 0.60 | 880 nM | 134 ± 26% | Nonspecific ≥ 30 μM |  |  |  | CC1Cc2ccccc2N1C(=O)CN1C(=O)NC(C)(c2ccc3c(c2)OCCO3)C1=O (centres unmarked) [AC208] | 
 |  |  | 7.03 ± 0.02 | 90 nM | 106 ± 1% |  | 7.51 ± 0.28 | 31 nM | 69.37 ± 8.01 | COc1cc(OC)cc(C(=O)NN2C(=O)NC(C)(c3ccccc3)C2=O)c1 (centres unmarked) [AC224] | 
